In patent publication US10101331B2, “Methods of evaluating patients using E-cadherin or vimentin” (AGIOS PHARMACEUTICALS, INC, priority 2012, dated 2018):

Assays:
Assay type in all cases: cell-based
NCI-H748 = experiment: Lung cancer cell line panel screened for sensitivity to BPTES, 72 hr proliferation assay
From the text: (§1) Of these, 44 of the cell lines have been classified as non-small cell lung cancer (NSCLC). […] Four of the top 25 transcriptional/cellular pathways were related to the epithelial-mesenchymal transition (EMT) (ranks 1, 15, 23, 25 of FIG. 2). […] Low E-cadherin/high vimentin are well-defined markers of cells that have a mesenchymal phenotype as characterized for example, in any one of the following references: (Yauch et al., (2005) Cin Cancer Res 11:24; Savagner et al., (2010) Ann Oncol. 21(suppl 7): vii89; Thiery et al., (2002) Nature Reviews Cancer June vol 2:442).

NCI-H1993 = experiment: as above
From the text: as §1

SW900 = experiment: as above
From the text: as §1

COR-L279 = experiment: as above
From the text: as §1

NCI-H1373 = experiment: as above
From the text: as §1

NCI-H2081 = experiment: as above
From the text: as §1

NCI-H522 = experiment: as above
From the text: as §1

NCI-H661 = experiment: as above
From the text: as §1

NCI-H2347 = experiment: as above
From the text: as §1

NCI-H2405 = experiment: as above
From the text: as §1

NCI-H596 = experiment: as above
From the text: as §1

NCI-H1568 = experiment: as above
From the text: as §1

DMS-53 = experiment: as above; conditions: DMS-53 cell line
From the text: as §1

NCI-H1573 = experiment: as above
From the text: as §1

A549 = experiment: as above
From the text: as §1

NCI-H1355 = experiment: as above
From the text: as §1

H2228 = experiment: as above
From the text: as §1

NCI-H2171 = experiment: as above
From the text: as §1

NCI-H1155 = experiment: as above
From the text: as §1

NCI-H520 = experiment: as above
From the text: as §1

NCI-H1651 = experiment: as above
From the text: as §1

NCI-H23 = experiment: as above
From the text: as §1

LXF-289 = experiment: as above
NCI-H28 = experiment: Mesothelioma cancer cell lines screened for sensitivity to BPTES; conditions: NCI-H28, among mesothelioma cancer cell lines
From the text: The MET-5A cell line is a normal […] cell line.
Low E-cadherin/high vimentin are well-defined markers of cells that have a mesenchymal phenotype as characterized for example, in any one of the following references: (Yauch et al., (2005) Cin Cancer Res 11:24; Savagner et al., (2010) Ann Oncol. 21(suppl 7): vii89; Thiery et al., (2002) Nature Reviews Cancer June vol 2:442).

MDA-MB-231 cells [1] = experiment: 13C(5)-Gln labeling of glutamate and aspartate, LC/MS; conditions: 1 hr drug pre-treatment, 2 hr 13C(5)-Gln labeling
Protocol: (§2) MDA-MB-231 cell lines stably expressing empty vector control (Con), wild-type GAC (GAC), or a BPTES-resistant GAC enzyme (GAC-BR) were treated with indicated concentrations of drugs in a 72 hr proliferation assay. […] Calculated p-values from student t-test, * (3×10^−5), **(7×10^−10), ^#(3×10^−5), ^##(5×10^−7).
Several groups have shown that GLS inhibition leads to a decrease in cellular tricarboxylic acid cycle (TCA) intermediates downstream of GLS activity (P. Gao et al. Nature 458, 762 (2009); T. Cheng et al. Proceedings of the National Academy of Sciences 108, 8674 (2011)). Measurement of glutamate (the product of the glutaminase reaction) and aspartate (which derives both carbon and nitrogen from glutamate) are particularly sensitive readouts of glutaminase activity (FIG. 13). ^13C labeled carbon in cells pre-treated with drug was tracked for 1 hr, followed by a 2 hr ^13C(5)-Gln labeling period, via LC/MS.

NCI-H1703 = experiment: Lung cancer cell line panel screened for sensitivity to BPTES, 72 hr proliferation assay
MDA-MB-231 cells [2] = experiment: 72 hr proliferation assay in lines stably expressing empty vector, GAC or GAC-BR
Protocol: as §2
Levels of overexpression of the GAC WT and GAC-BR mutant were approximately 1.5-2.0 fold above endogenous GLS1 levels (FIG. 12).

SMILES: O=C(Cc1ccccc1)Nc1nnc(CCSCCc2nnc(NC(=O)Cc3ccccc3)s2)s1 [BPTES]
- μ/μmax (NCI-H748): 0.76
- μ/μmax (NCI-H1993): 0.89
- μ/μmax (SW900): 0.70
- μ/μmax (COR-L279): 0.88
- μ/μmax (NCI-H1373): 0.79
- μ/μmax (NCI-H2081): 1.00
- Max Inh @ 10 uM (%) (NCI-H522; NCI-H522, 10 uM): 39%
- Mu/max @10 uM (NCI-H522; NCI-H522, 10 uM): 0.61
- μ/μmax @10 uM (NCI-H522; NCI-H522, 10 uM): 0.61
- μ/μmax (NCI-H522; NCI-H522 cell line): 0.61
- Max Inh @ 10 uM (%) (NCI-H661; NCI-H661, 10 uM): 73%
- Mu/max @10 uM (NCI-H661; NCI-H661, 10 uM): 0.43
- μ/μmax @10 uM (NCI-H661; NCI-H661, 10 uM): 0.43
- μ/μmax (NCI-H661; NCI-H661 cell line): 0.43
- μ/μmax (NCI-H2347): 0.90
- μ/μmax (NCI-H2405): 0.92
- Max Inh @ 10 uM (%) (NCI-H596; NCI-H596, 10 uM): 13%
- Mu/max @10 uM (NCI-H596; NCI-H596, 10 uM): 0.84
- μ/μmax @10 uM (NCI-H596; NCI-H596, 10 uM): 0.84
- μ/μmax (NCI-H596; NCI-H596 cell line): 0.84
- Max Inh @ 10 uM (%) (NCI-H1568; NCI-H1568, 10 uM): 50%
- Mu/max @10 uM (NCI-H1568; NCI-H1568, 10 uM): 0.25
- μ/μmax @10 uM (NCI-H1568; NCI-H1568, 10 uM): 0.25
- μ/μmax (NCI-H1568; NCI-H1568 cell line): 0.25
- μ/μmax (DMS-53): 0.93
- μ/μmax (NCI-H1573): 0.92
- Max Inh @ 10 uM (%) (A549; A549, 10 uM): 73%
- Mu/max @10 uM (A549; A549, 10 uM): 0.53
- μ/μmax @10 uM (A549; A549, 10 uM): 0.53
- μ/μmax (A549; A549 cell line): 0.53
- μ/μmax (NCI-H1355): 0.78
- μ/μmax (H2228): 0.69
- μ/μmax (NCI-H2171): 0.88
- μ/μmax (NCI-H1155): 0.93
- Max Inh @ 10 uM (%) (NCI-H520; NCI-H520, 10 uM): 14%
- Mu/max @10 uM (NCI-H520; NCI-H520, 10 uM): 0.79
- μ/μmax @10 uM (NCI-H520; NCI-H520, 10 uM): 0.79
- μ/μmax (NCI-H520; NCI-H520 cell line): 0.79
- μ/μmax (NCI-H1651): 1.00
- Max Inh @ 10 uM (%) (NCI-H23; NCI-H23, 10 uM): 45%
- Mu/max @10 uM (NCI-H23; NCI-H23, 10 uM): 0.60
- μ/μmax @10 uM (NCI-H23; NCI-H23, 10 uM): 0.60
- μ/μmax (NCI-H23; NCI-H23 cell line): 0.60
- Max Inh @ 10 uM (%) (LXF-289; LXF-289, 10 uM): 91%
- Mu/max @10 uM (LXF-289; LXF-289, 10 uM): −0.25
- μ/μmax @10 uM (LXF-289; LXF-289, 10 uM): −0.25
- μ/μmax (LXF-289; LXF-289 cell line): −0.25
- sensitivity to BPTES (NCI-H28): most sensitive
- 13C label accumulation in glutamate and aspartate (MDA-MB-231 cells [1]): decreased label accumulation
- Max Inh @ 10 uM (%) (NCI-H1703; NCI-H1703, 10 uM): 87%
- Mu/max @10 uM (NCI-H1703; NCI-H1703, 10 uM): 0.30
- μ/μmax @10 uM (NCI-H1703; NCI-H1703, 10 uM): 0.30
- μ/μmax (NCI-H1703; NCI-H1703 cell line): 0.30
- sensitivity to BPTES (MDA-MB-231 cells [2]; MDA-MB-231 cells expressing empty vector or GAC-WT): retained significant sensitivity
- sensitivity to BPTES (MDA-MB-231 cells [2]; MDA-MB-231 cells with stable overexpression of the GAC-BR mutant): rendered resistant
